The subject of experiment [1] is anti-CD2 antibody B-E2. Kind of experiment: FACS competition assay of peptides for binding of anti-CD2 antibody B-E2 to T cells. As to conditions: 1 mM peptide, 1×10^6 MNC, 15 min room temperature; FIG. 3. The method, then:
Peptides having affinity for the CD2 monoclonal antibody B-E2 were isolated by phage display biopanning. Various peptides were tested as competitors for binding of T cells to the anti-CD2 antibody B-E2. A competition assay was performed using 1 mM of each peptide. The peptides were at 2×10^7 fold molar excess relative to the competitor CD2 antigen and at 6×10^6 fold molar excess relative to anti-CD2 antibody. Competition was measured using a FACS competition assay (see FIG. 3).
For the competition assay, 0.5 ml of a 1 mM solution of various peptides was added to 1×10^6 peripheral blood mononuclear cells (MNC) followed by the addition of 100 μl of 0.02 μg/ml of CD2 antibody (B-E2) and incubated for 15 min at room temperature. Cells were washed once in lysing reagent (155 mM ammonium chloride, 10 mM potassium bicarbonate, and 0.1 mM EDTA) and twice in 2 ml of PAH (DPBS, 1% human serum albumin, 0.02% NaN3). 1 μl of goat F(ab′)2 fragment anti-mouse IgG (heavy+light)-phycoerythrin conjugated (GAM-PE; Immunotech; Miami Fla.) was added to each sample and incubated for 10 min at room temperature. Cells were washed twice in 2 ml of PAH. The final cell pellet was resuspended in 0.25 ml of 0.5% paraformaldehyde. The samples were analyzed by flow cytometry.

Experiment [2] deals with anti-CD2 antibody B-E2. Briefly: FACS release assay of cells bound to anti-CD2 antibody using peptides. As to conditions: 1 mM or 5 mM peptide, 30 min room temperature, in some cases 1 mM DTT; FIG. 4. Format: binding. As for the experimental part:
Several of the peptides were further tested for release activity. Briefly, the FACS release assay was performed by incubating 1×10^6 MNC with 100 μl of 0.02 μg/ml of CD2 antibody for 15 min at room temperature. Cells were washed once with 2 ml of lysing reagent and twice with 2 ml of PAH solution. 0.5 ml of a 1 mM or 5 mM peptide stock was added to the cell pellet and incubated at room temperature for 30 min. Cells were washed twice in 2 ml of PAH. 1 μl of GAM-PE was added to each sample and incubated for 10 min at room temperature. Cells were washed twice in 2 ml of PAH. The final cell pellet was resuspended in 0.25 ml of 0.5% paraformaldehyde. The samples were analyzed by flow cytometry.
In the release assay, either 1 mM or 5 mM peptide (1 mM peptide except where indicated to be 5 mM in FIG. 4). In some cases, the release assay was performed in the presence of 1 mM dithiothreitol (DTT). The assay was performed with two different batches of donor cells (second batch of donor cells designated with “*” in FIG. 4).

For experiment [3], the target named is biotinylated 9C5 antibody (anti-human CD34 monoclonal antibody). Kind of experiment: cell-based or functional assay.

Where “and” joins values, the source holds several entries; their conditions need not be identical. Equal entries are not always repeated. Ends that are not written are not given here.

Take ACKQFDFCNDHWSKSQH: the “competition for binding of the anti-CD2 antibody B-E2 to cells” value (“competition for binding” for short) in experiment [1] is reported as “compete for binding”.

Turning to ACKQFACKQF, the “competition for binding” value in experiment [1] is reported as “compete for binding”. With ACKQFN, in experiment [1], the “competition for binding” value was “compete for binding”. Regarding ACKQF, the “competition for binding” value in experiment [1] is listed as “compete for binding”.

Consider ACKQFDFCNDHWSK, for which, in experiment [1], the “competition for binding” value was “compete for binding”. With ACKQFDFCNDH, the “competition for binding” value in experiment [1] is “compete for binding”. On the same count and under the same terms, in the case of ACKRPP it was “compete for binding”; in that of ACKRPPVSLTCH, “compete for binding”; in that of ACKQFNNDVTCNAAEGDD, “compete for binding”. Consider RCRRPATTPACR, for which the “competition for binding” value in experiment [1] is given as “compete for binding”. In addition, the “release activity (release of T cells bound to anti-CD2 antibody)” value in experiment [2] is on record as “highest release activity”. Regarding RCRRPATTPACRACKQF, the “competition for binding” value in experiment [1] is recorded as “compete for binding”. Turning to ACKQFNNDVTCN, the “competition for binding” value in experiment [1] is “compete for binding”. For ACKQLHSVSGCR, in experiment [1], the “competition for binding” value is “compete for binding”. For the molecule ACKQFNNDV, the “competition for binding” value in experiment [1] is “compete for binding”.

Consider ACKQFNNDVTCNKRH, for which the “competition for binding” value in experiment [1] is recorded as “compete for binding”. For the molecule ACKQFDFC, in experiment [1], the “competition for binding” value is on record as “compete for binding”. Regarding KCHPNMSLKECH, the “competition for binding” value in experiment [1] is “compete for binding”. The same measure, in the same setting: in the case of ASKQF it was “compete for binding”. In the case of Ac-QQGWFPKD [free PR34+ peptide Ac-QQGWFPKD (SEQ ID NO:2)], in experiment [3], the % SUP-T1 Yield after release with free peptide (tube 2) was determined as 43%; the % SUP-T1 Yield after release with free peptide (tube 3) was determined as 31%; the % T-cells released by 9069N 2.5 mg (CD2-9069N 1 µg, b-9069 1 µg) stood at 71%; the % T-cells released by 9069N 2.5 mg (CD2-9069N 1 µg, b-9069 10 µg) is 87% and 65%. Also, in experiment [3], the % T-cells released by 9069N 2.5 mg (CD2-9069N 5 µg, b-9069 1 µg) is 61% and 56%; the % T-cells released by 9069N 2.5 mg (CD2-9069N 5 µg, b-9069 10 µg) worked out at 50%; the % Yield after release with PR34+ 2.5 mg (streptavidin coated Dynabead control) is 81.5%; the % Yield of CD8+ cells after release with free peptide (condition 3) was 16%.

The record behind these values is patent US20030119070A1, “Reagents for cell selection and methods of use” (Nexell Therapeutics, Inc., priority 2000, published 2003).
